35 compounds from patent US20230374143A1, “A SORTILIN ANTAGONIST FOR USE IN THE PREVENTION OR TREATMENT OF HEARING LOSS” (Insusense ApS, priority 2020, published 2023) can be followed below.

A value given as a limit tells only on which side of the number the result lay.

System in the first data set: not listed separately
The data set is described as follows: Poloxamer gelling tests at 20° C. and 37° C. In kind it is physicochemical. The settings on record: 14% poloxamer gel, compound at 1 mg/mL. An excerpt:
In a preferred embodiment, the sortilin antagonists herein described may be administered in a gel formulation, preferably a Poloxamer 407 gel formulation. Said formulation may comprise the following excipients, reactants and solvents; Poloxamer 407, 5% glucose, Sodium dihydrogenophosphate, Di-sodium hydrogenophosphate, acetonitrile, trifluoroacetic acid and de-ionized water. Preferably, the gel formulation is a 14% poloxamer solution in diluted pH 7.4 phosphate buffer (0.013M) in deionized water. […] (body temperature), see Table 1 below. […] Accordingly, the aforementioned gel formulation is an appropriate vehicle solution to administer said compounds.
`Cc1cccc(NC(=O)c2ccc(C(F)(F)F)cc2C(=O)O)n1` [Example 8, 2-[(6-methylpyridin-2-yl)carbamoyl]-5-(trifluoromethyl)benzoic acid]: the “properties of the poloxamer gel formulation after addition of compound” value was “unaltered”.

The target in the next data set is T1, SORT (Homo sapiens, UniProt Q99523).
T1 sequence (Q99523 78-831): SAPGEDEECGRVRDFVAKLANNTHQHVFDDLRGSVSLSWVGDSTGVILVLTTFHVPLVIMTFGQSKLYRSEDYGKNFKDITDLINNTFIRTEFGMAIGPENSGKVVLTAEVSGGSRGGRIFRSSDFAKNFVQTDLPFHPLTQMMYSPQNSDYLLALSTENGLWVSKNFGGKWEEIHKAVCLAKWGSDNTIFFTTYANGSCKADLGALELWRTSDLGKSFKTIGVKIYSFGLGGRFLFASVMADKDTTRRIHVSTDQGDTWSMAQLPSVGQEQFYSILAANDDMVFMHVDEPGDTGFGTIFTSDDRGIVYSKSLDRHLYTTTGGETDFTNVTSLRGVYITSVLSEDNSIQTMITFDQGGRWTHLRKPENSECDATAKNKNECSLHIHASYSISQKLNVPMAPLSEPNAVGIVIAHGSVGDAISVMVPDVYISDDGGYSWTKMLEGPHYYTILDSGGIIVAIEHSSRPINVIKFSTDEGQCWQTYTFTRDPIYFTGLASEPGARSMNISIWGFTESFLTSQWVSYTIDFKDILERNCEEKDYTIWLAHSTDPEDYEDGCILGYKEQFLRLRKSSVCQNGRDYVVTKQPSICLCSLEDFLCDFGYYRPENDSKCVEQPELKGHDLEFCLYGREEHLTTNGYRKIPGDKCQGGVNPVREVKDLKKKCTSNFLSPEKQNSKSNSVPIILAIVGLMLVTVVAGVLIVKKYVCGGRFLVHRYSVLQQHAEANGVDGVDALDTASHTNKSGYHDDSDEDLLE
Nature of the data set: progranulin (PGRN) peptide/SORT homogenous time-resolved fluorescence (HTRF) assay. In kind it is binding. The settings on record: SORT 1 nM, biotinylated 18-mer PGRN peptide 4 nM, TR-FRET. How it is done: To determine the IC50s of compounds bound to SORT and thus preventing its interaction with the biotinylated 18-mer PGRN peptide a time-resolved fluorescence resonance energy transfer (TR-FRET) format was used. All test compounds were dissolved in DMSO; the final concentration of DMSO in the reaction buffer was 1%. Compounds were prepared in a ten-point, three-fold serial dilution scheme using an acoustic dispenser. A solution of SORT protein in assay buffer (10 mM HEPES, pH 7.3, 150 mM NaCl, 0.005% Brij-35 and 0.01% BSA, final concentration of SORT 1 nM) was added to each well and pre-incubated with compounds or DMSO vehicle at ambient temperature for 10 min with gentle shaking. Next, biotinylated 18-mer PGRN peptide was added to each well (final concentration 4 nM) and the binding reactions were incubated at ambient temperature for 30 min with gentle shaking. Solutions of SA/Dylight in assay buffer were added to each well, immediately followed by addition of Eu/anti-His in assay buffer. […] Data were analyzed using ABase and a 4-parameter logistic fit based on the Levenberg-Marquardt algorithm.^9
As a reminder, the IC50 is the concentration needed to halve the response being measured. Lower therefore signals inhibition by little substance. For the compound `CC(C)(C)C[C@H](NC(=O)c1cc(Cl)cc(Cl)c1)C(=O)O` [Example 57, (2S)-2-[(3,5-dichlorophenyl)formamido]-4,4-dimethylpentanoic acid], the IC50 is 0.35 µM. The same measure, in the same setting: to `CC(C)C[C@H](NC(=O)C(C)(C)Cc1ccc(Cl)cc1)C(=O)O` [Example 49, (2S)-2-{2-[(4-chlorophenyl)methyl]-2-methylpropanamido}-4-methylpentanoic acid] belongs 6.8 µM.

Compound `CC(C)(C)Cc1cc(C(=O)O)n(Cc2ccccc2)n1` [Example 39, 1-benzyl-3-(2,2-dimethylpropyl)-1H-pyrazole-5-carboxylic acid] had an IC50 of 6.6 µM. The same measure, in the same setting: to `CC(C)(C)c1cc(C(=O)O)n(CCc2ccccc2)n1` [Example 37, 3-tert-butyl-1-(2-phenylethyl)-1H-pyrazole-5-carboxylic acid] belongs 5.3 µM.

In turn, `CC(C)c1cc(C(=O)O)n(CCc2ccccc2)n1` [Example 40, 1-(2-phenylethyl)-3-(propan-2-yl)-1H-pyrazole-5-carboxylic acid] yielded a half-maximal inhibitory concentration (IC50) of more than 67 µM. Turning to `CC(C)(C)c1cc(C(=O)O)n(Cc2ccccc2)n1` [Example 31, 1-benzyl-3-tert-butyl-1H-pyrazole-5-carboxylic acid], the IC50 turned out to be 2 µM.

For the compound `C=C(C)C[C@H](NC(=O)c1cc(Cl)cc(Cl)c1)C(=O)O` [Example 54, (2S)-2-[(3,5-dichlorophenyl)formamido]-4-methylpent-4-enoic acid], half-maximal inhibition (IC50) was put at 17.1 µM.

`Cn1nc(C(C)(C)C)cc1C(=O)O` [Example 35, 3-tert-butyl-1-methyl-1H-pyrazole-5-carboxylic acid] returned an IC50 of 8.3 µM. On the same count and under the same terms, for `CC(C)(C)CC(NC(=O)c1cc(Cl)cc(Cl)c1)c1nn[nH]n1` (centres unmarked) [Example 62, 3,5-dichloro-N-[3,3-dimethyl-1-(2H-1,2,3,4-tetrazol-5-yl)butyl]benzamide] the value was 6.9 µM; for `CC(C)C[C@H](NC(=O)C1CN(Cc2cc(Cl)cc(Cl)c2)CCO1)C(=O)O` (stereo partly drawn) [Example 53, (2S)-2-({4-[(3,5-dichlorophenyl)methyl]morpholin-2-yl}formamido)-4-methylpentanoic acid], 14.4 µM; for `O=C(N[C@@H](CC12CC(C1)C2)C(=O)O)c1cc(Cl)cc(Cl)c1` [Example 58, (2S)-3-{bicyclo[1.1.1]pentan-1-yl}-2-[(3,5-dichlorophenyl)formamido]propanoic acid], 18 µM. On the same count and under the same terms, to `CC(C)C[C@H](NC(=O)c1cnc2ccccc2n1)C(=O)O` [Example 51, (2S)-4-methyl-2-[(quinoxalin-2-yl)formamido]pentanoic acid] belongs 6.3 µM; to `CC(C)(C)CC[C@H](NC(=O)c1ccc(Oc2ccccc2)nc1)C(=O)O` (single isomer, unassigned) [Example 44], 0.02 µM; to `CC(C)(C)c1cc(C(=O)O)n(Cc2cc(Cl)cc(Cl)c2)n1` [Example 32, 3-tert-butyl-1-[(3,5-dichlorophenyl)methyl]-1H-pyrazole-5-carboxylic acid], 2.1 µM. Still for that read-out and setting: for `CC(C)C[C@H](NC(c1cc(Cl)cc(Cl)c1)C(F)(F)F)C(=O)O` (stereo partly drawn) [Example 63, (2S)-2-{[1-(3,5-dichlorophenyl)-2,2,2-trifluoroethyl]amino}-4-methylpentanoic acid] the value was 10.8 µM; for `CC(C)(C)OC[C@H](NC(=O)c1cc(Cl)cc(Cl)c1)C(=O)O` [Example 60, (2S)-3-(tert-butoxy)-2-[(3,5-dichlorophenyl)formamido]propanoic acid], 1.5 µM. In turn, `CC(C)(C)CCc1cc(C(=O)O)n(Cc2ccccc2)n1` [Example 41, 1-benzyl-3-(3,3-dimethylbutyl)-1H-pyrazole-5-carboxylic acid] showed an IC50 of more than 67 µM. Still for that read-out and setting: for `CC(C)(C)C[C@H](NC(=O)c1ccc(Oc2ccccc2)nc1)C(=O)O` [Example 64, (2S)-4,4-dimethyl-2-[(6-phenoxypyridin-3-yl)formamido]pentanoic acid] the value was 0.065 µM; for `CC(C)(C)c1cc(C(=O)O)n(Cc2nnc(-c3ccccc3)o2)n1` [Example 38, 3-tert-butyl-1-[(5-phenyl-1,3,4-oxadiazol-2-yl)methyl]-1H-pyrazole-5-carboxylic acid], 0.49 µM.

The compound `CC(C)(C)c1cc(C(=O)O)n(-c2ccccc2)n1` [Example 36, 3-tert-butyl-1-phenyl-1H-pyrazole-5-carboxylic acid] returned an IC50 of 7.6 µM. `CC(C)C[C@H](NC(=O)C1CCCC1)C(=O)O` [Example 52, (2S)-2-(cyclopentylformamido)-4-methylpentanoic acid] had an IC50 of 25.3 µM.

For the compound `CC(C)(C)CC[C@H](NC(=O)c1cc(Cl)cc(Cl)c1)C(=O)O` (single isomer, unassigned) [Example 42], inhibition was half-maximal at 0.17 µM (IC50). The same measure, in the same setting: for `O=C(N[C@@H](CC1CC1)C(=O)O)c1cc(Cl)cc(Cl)c1` [Example 55, (2S)-3-cyclopropyl-2-[(3,5-dichlorophenyl)formamido]propanoic acid] the value was 10.7 µM; for `CC(C)C[C@H](NC(=O)c1ccc(Cl)c(Cl)c1)C(=O)O` [Example 45, (2S)-2-[(3,4-dichlorophenyl)formamido]-4-methylpentanoic acid], 4.3 µM. In the case of `O=C(N[C@@H](Cc1ccccc1)C(=O)O)c1cc(Cl)cc(Cl)c1` [Example 59, (2S)-2-[(3,5-dichlorophenyl)formamido]-3-phenylpropanoic acid], the IC50 is more than 67 µM. For `CC(C)C[C@H](NC(=O)c1cc(Cl)cc(Cl)c1)C(=O)O` [Example 46, (2S)-2-[(3,5-dichlorophenyl)formamido]-4-methylpentanoic acid], it took 2.7 µM to reach half-maximal inhibition (IC50). `CC(C)(C)c1cc(C(=O)O)n(Cc2ccc(-n3cccn3)nc2)n1` [Example 33, 3-tert-butyl-1-{[6-(1H-pyrazol-1-yl)pyridin-3-yl]methyl}-1H-pyrazole-5-carboxylic acid] gave an IC50 of 3 µM. The same measure, in the same setting: to `O=C(N[C@@H](CC1CCCCC1)C(=O)O)c1cc(Cl)cc(Cl)c1` [Example 56, (2S)-3-cyclohexyl-2-[(3,5-dichlorophenyl)formamido]propanoic acid] belongs 2.3 µM; to `CC(C)C[C@H](NC(=O)c1cccc(Cl)c1)C(=O)O` [Example 47, (2S)-2-[(3-chlorophenyl)formamido]-4-methylpentanoic acid], 4.5 µM. On the same count and under the same terms, for `CC(C)C[C@H](NC(=O)c1cnn(C)c1)C(=O)O` [Example 50, (2S)-4-methyl-2-[(1-methyl-1H-pyrazol-4-yl)formamido]pentanoic acid] the value was 5.3 µM. Same read-out and setting: to `COc1cccc(C(=O)N[C@@H](CC(C)C)C(=O)O)c1` [Example 48, (2S)-2-[(3-methoxyphenyl)formamido]-4-methylpentanoic acid] belongs 6.8 µM; to `CC(C)(C)c1cc(C(=O)O)n(Cc2ccc(Oc3ccccc3)nc2)n1` [Example 34, 3-tert-butyl-1-[(6-phenoxypyridin-3-yl)methyl]-1H-pyrazole-5-carboxylic acid], 2.1 µM; to `CC(OC(C)(C)C)[C@H](NC(=O)c1cc(Cl)cc(Cl)c1)C(=O)O` (stereo partly drawn) [Example 61, (2S)-3-(tert-butoxy)-2-[(3,5-dichlorophenyl)formamido]butanoic acid], more than 67 µM. The compound `CC(C)(C)CC[C@H](NC(=O)c1cc(Cl)c[nH]1)C(=O)O` (single isomer, unassigned) [Example 43] yielded an IC50 of 0.09 µM.
